Laboratory results reported in ChEMBL document CHEMBL1122015, “Rigid analogues of dopamine: synthesis and interaction of 6-exo- and 6-endo-(3',4'-dihydroxyphenyl)-2-azabicyclo[2.2.2]octanes with dopamine uptake sites and receptors” (J Med Chem, 1982).

Key:
[1] = species: Rattus norvegicus; assay: Effect on DA-sensitive adenylate cyclase activity in rat striatal homogenates; format: functional
[2] = species: Rattus norvegicus; assay: Inhibition of the uptake of [3H]DA by corpus striatum synaptosomes of reserpine-pretreated rat; format: functional
[3] = species: Rattus norvegicus; assay: Reported to half-maximally effective concentration of reserpine-pretreated rat

## Oc1ccc([C@H]2CC3CC[C@H]2NC3)cc1O (stereo in doubt; 1) [listing 1 of 2 here]
[1]
  Activity: 117%

## Oc1ccc([C@H]2CC3CC[C@H]2NC3)cc1O (relative stereo) [listing 1 of 2 here]
[2]
  IC50: 32 µM

## N[C@H]1C[C@@H]1c1ccccc1 (racemic)
[3]
  IC50: 1.7 µM
[2]; Rattus norvegicus, Corpus striatum
  IC50: 0.9 µM

## Oc1ccc([C@H]2CC3CC[C@H]2NC3)cc1O (relative stereo) [listing 2 of 2 here]
[1]
  Activity: 93%

## Oc1ccc([C@H]2CC3CC[C@H]2NC3)cc1O (stereo in doubt; 1) [listing 2 of 2 here]
[2]
  IC50: 110 µM

## NCCc1ccc(O)c(O)c1
[1]
  Activity: 210%
